Laboratory results as given in patent US9783536B2, “Nitrogen-containing heterocyclic compound or salt thereof” (FUJIFILM Corporation, priority 2013, dated 2017).
Where a name gives a salt, the structure may show the parent alone. Read-outs that look alike come from different tables or passages of the source.

Columns and labels:
[1] = target: T1, human PI3Kα protein (Homo sapiens, UniProt P42336); assay: PI3Kα enzyme assay (ADP-Glo); type: biochemical; conditions: read-out: PI3Kα enzyme inhibitory activity
T1 construct: purchased Carna Biosciences, Inc; host or cells: baculovirus expression system
T1 sequence (P42336 whole entry): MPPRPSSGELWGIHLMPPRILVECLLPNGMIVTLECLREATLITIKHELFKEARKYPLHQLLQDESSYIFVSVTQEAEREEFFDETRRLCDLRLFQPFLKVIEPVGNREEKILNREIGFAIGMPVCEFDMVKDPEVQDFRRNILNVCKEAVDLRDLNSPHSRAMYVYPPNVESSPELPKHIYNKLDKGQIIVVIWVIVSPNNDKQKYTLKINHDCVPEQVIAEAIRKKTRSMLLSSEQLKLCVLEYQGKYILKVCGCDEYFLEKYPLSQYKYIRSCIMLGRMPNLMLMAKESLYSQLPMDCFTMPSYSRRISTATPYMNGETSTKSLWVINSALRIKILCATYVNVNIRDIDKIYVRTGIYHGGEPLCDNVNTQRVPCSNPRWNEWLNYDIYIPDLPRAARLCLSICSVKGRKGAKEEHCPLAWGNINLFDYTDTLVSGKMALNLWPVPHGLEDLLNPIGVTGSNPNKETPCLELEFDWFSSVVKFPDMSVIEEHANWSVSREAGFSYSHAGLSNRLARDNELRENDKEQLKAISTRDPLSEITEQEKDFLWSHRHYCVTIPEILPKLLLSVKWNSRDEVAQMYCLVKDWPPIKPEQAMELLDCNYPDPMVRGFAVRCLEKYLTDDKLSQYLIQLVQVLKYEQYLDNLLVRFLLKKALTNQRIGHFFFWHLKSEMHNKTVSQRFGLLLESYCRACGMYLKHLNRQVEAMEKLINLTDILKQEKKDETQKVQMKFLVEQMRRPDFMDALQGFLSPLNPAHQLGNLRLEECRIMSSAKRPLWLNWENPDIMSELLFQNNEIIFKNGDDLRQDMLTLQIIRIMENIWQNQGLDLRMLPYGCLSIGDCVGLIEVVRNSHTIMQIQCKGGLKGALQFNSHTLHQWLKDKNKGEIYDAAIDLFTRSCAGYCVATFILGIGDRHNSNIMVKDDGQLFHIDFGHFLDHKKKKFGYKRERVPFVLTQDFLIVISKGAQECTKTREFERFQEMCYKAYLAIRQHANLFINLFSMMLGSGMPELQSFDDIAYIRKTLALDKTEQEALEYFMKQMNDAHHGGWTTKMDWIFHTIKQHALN
T1 sequence (P27986 whole entry partner): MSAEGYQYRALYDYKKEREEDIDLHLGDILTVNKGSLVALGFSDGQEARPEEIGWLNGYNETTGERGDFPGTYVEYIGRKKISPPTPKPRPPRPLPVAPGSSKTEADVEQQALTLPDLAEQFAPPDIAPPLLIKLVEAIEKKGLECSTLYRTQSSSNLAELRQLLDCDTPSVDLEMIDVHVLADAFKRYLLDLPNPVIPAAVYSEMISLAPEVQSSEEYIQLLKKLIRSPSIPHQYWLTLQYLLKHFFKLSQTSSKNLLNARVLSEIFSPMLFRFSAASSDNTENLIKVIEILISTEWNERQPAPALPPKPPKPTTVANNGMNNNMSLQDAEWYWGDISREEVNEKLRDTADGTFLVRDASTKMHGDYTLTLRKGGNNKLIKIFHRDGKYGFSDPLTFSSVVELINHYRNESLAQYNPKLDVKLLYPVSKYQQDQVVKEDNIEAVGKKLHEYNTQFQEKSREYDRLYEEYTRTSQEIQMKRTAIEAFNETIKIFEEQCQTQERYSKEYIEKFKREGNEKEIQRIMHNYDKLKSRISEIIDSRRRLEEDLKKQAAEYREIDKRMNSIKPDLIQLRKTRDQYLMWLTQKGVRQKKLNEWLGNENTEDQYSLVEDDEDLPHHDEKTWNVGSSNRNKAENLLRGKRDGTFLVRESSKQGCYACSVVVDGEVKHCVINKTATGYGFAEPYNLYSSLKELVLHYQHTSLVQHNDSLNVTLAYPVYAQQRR
Procedure: In a PI3Kα enzyme assay, a product (manufactured by Carna Biosciences, Inc.) obtained by biotinylating a human PI3Kα protein produced by using a baculovirus expression system was used. In addition, in the detection of enzyme activity, ADP-GLO KINASE ASSAY (trade name, manufactured by PROMEGA Corporation) was used.
10 μL of a reaction liquid (4.5 nmol/L PI3Kα, 40 mmol/L Tris-HCl, 20 mmol/L MgCl2, 0.1% BSA, pH 7.5) including the human PI3Kα protein and a test compound having a predetermined concentration was allowed to stand at room temperature for 15 minutes. Then, 5 μL of a mixture liquid of L-α-phosphatidylinositol 4,5-diphosphate (PIP2) (manufactured by Sigma-Aldrich Co. LLC.) and ATP (manufactured by Sigma-Aldrich Co. LLC.), which are substrates, was added thereto such that final concentrations thereof became 50 μmol/L and 100 μmol/L, respectively, and an enzyme reaction was performed by allowing to stand at 25° C. for 60 minutes.
After the reaction, the enzyme reaction was stopped by adding 15 μL of an ADP-GLO REAGENT (trade name, manufactured by PROMEGA Corporation) thereto and allowing to stand at room temperature for 60 minutes. Then, 30 μL of a KINASE DETECTION REAGENT (trade name, manufactured by PROMEGA Corporation) was added thereto, followed by allowing to stand at room temperature for 40 minutes, and ADP produced by the enzyme reaction was quantified by emission intensity.
ENVISION (trade name, manufactured by Perkin Elmer Inc.) was used for the measurement of the emission intensity.
(§1) The inhibitory activities of the compounds were evaluated using IC50 (50% inhibitory concentration). The IC50 was calculated using XLFIT (trade name, manufactured by ID Business Solutions).

[2] = target: T2, GST fusion human ERK2 protein (Homo sapiens, UniProt P28482); assay: ERK2 enzyme assay (2); type: biochemical; conditions: read-out: ERK2 enzyme inhibitory activity (2)
T2 construct: purchased Carna Biosciences, Inc; host or cells: E. coli expression system
T2 sequence (P28482 whole entry, the tested form may be a part): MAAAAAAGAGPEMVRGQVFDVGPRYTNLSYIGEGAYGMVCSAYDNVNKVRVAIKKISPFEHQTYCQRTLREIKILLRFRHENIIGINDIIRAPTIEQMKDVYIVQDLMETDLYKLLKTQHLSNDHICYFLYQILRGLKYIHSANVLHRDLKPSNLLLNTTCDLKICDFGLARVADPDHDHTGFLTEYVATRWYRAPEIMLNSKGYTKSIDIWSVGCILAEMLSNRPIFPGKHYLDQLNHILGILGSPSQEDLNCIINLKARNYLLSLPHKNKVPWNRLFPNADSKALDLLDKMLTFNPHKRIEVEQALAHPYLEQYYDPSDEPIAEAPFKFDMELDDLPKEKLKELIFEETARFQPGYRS
Procedure: In an ERK2 enzyme assay, GLUTATHIONE S-TRANSFERASE (GST) FUSION HUMAN ERK2 PROTEIN (manufactured by Carna Biosciences, Inc.), which was produced by using an E. coli expression system, was used.
12 μL of a reaction liquid (1.25 nmol/L ERK2, 100 mmol/L Hepes, 10 mmol/L MgCl2, 1.5 mmol/L DTT, 0.003% Brij35, pH 7.5) including ERK2 protein and a test compound having a predetermined concentration was allowed to stand at room temperature for 15 minutes. Then, 3 μL of a mixture liquid of FL-PEPTIDE8 (5-FAM-IPTSPITTTYFFFKKK-COOH) (manufactured by Caliper Life Sciences), which is substrate peptide, and ATP (manufactured by Sigma-Aldrich Co. LLC.) was added thereto such that the final concentrations thereof became 4.25 μmol/L and 1 mmol/L, respectively, and an enzyme reaction was performed by allowing to stand at 25° C. for 120 minutes.
After the reaction, the enzyme reaction was stopped by adding 30 μL of a reaction stopper liquid (100 mmol/L HEPES, 11.2 mmol/L EDTA, 5.6% Brij35, pH 7.5) including a 0.5% COATING REAGENT 8 (trade name, manufactured by Perkin Elmer Inc.) thereto. Then, phosphorylated peptide and non-phosphorylated peptide were separated using LABCHIP EZ READER (trade name, manufactured by Caliper Life Sciences), and the porportion of the phosphorylated peptide was quantified.
as §1

Structure (SMILES) | IC50 [1] [µM] | IC50 ([2]; ERK2 enzyme assay (2)) [µM] | IC50 [2] [µM]
CC(C)c1cnnc(Nc2ccc3ncc(N4CCC(N5CCCC5)C4)cc3n2)c1 (centres unmarked) [Example 0899] | 1 to 10 | 1 to 10 | 
CC(C)c1cnnc(Nc2ccc3ncc(C4=CCNC4)cc3n2)c1 [Example 0906, 7-(2,5-Dihydro-1H-pyrrol-3-yl)-N-(5-isopropylpyridazin-3-yl)-1,5-naphthyridine-2-amine] | 1 to 10 |  | < 1
CC(C)c1cnnc(Nc2ccc3ncc(N(C)S(C)(=O)=O)cc3n2)c1 [Example 0841, N-(6-((5-isopropylpyridazin-3-yl)amino)-1,5-naphthyridin-3-yl)-N-methylmethane sulfonamide] | 1 to 10 | 1 to 10 | 
Cn1cc(-c2cnc3ccc(Nc4cc(N5CCCC5)cnn4)nc3c2)cn1 [Example 0520] | 1 to 10 | < 1 | 
COCC1(Nc2cnc3ccc(Nc4cc(C(C)C)cnn4)nc3c2)CCC1 [Example 0889] | 10 to 50 | 10 to 50 | 
CC(C)c1cnnc(Nc2ccc3ncc(-c4cn(C)nc4COc4cccnc4)cc3n2)c1 [Example 0799, N-(5-isopropylpyridazin-3-yl)-7-(1-methyl-3-((pyridin-3-yloxy)methyl)-1H-pyrazol-4-yl)-1,5-naphthyridine-2-amine] | < 1 | < 1 | 
CC(C)c1cnnc(Nc2ccc3ncc(-c4cnn(CC5CCN(C(=O)C6CC6)CC5)c4)cc3n2)c1 [Example 0534] | < 1 | < 1 | 
CC(C)c1cnnc(Nc2ccc3ncc(C4=CCN(C(=O)N(C)C)CC4)cc3n2)c1 [Example 0883, 4-(6-((5-Isopropylpyridazin-3-yl)amino)-1,5-naphthyridin-3-yl)-N,N-dimethyl-5,6-dihydropyridine-1(2H)-carboxamide] | < 1 | < 1 | 
CCC(C)c1cnnc(Nc2ccc3ncc(-c4cn(C)nc4C)cc3n2)c1 (centres unmarked) [Example 0916] | < 1 |  | < 1
COc1ncccc1-c1cnc2ccc(Nc3cc(C(C)C)cnn3)nc2c1 [Example 0591] | 1 to 10 | < 1 | 
CC(C)c1cnnc(Nc2ccc3ncc(-c4cn(C)nc4Nc4ccccc4)cc3n2)c1 [Example 0829] | < 1 | < 1 | 
COCCN(CCCn1cc(-c2cnc3ccc(Nc4cc(C(C)C)cnn4)nc3c2)cn1)CCOC [Example 0660] | < 1 | < 1 | 
CCc1nc(C)cn1-c1cnc2ccc(Nc3cc(C(C)C)cnn3)nc2c1 [Example 0514] | 1 to 10 | < 1 | 
COCCn1cc(-c2nn(C)cc2-c2cnc3ccc(Nc4cc(C(C)C)cnn4)nc3c2)cn1 [Example 0784] | < 1 | < 1 | 
Cc1nn(C)cc1-c1cnc2ccc(Nc3cc(C(C)(C)O)cnn3)nc2c1 [Example 0547] | < 1 | < 1 | 
CC(=O)N(C)c1cnc2ccc(Nc3cc(C(C)C)cnn3)nc2c1 [Example 0628, N-(6-((5-isopropylpyridazin-3-yl)amino)-1,5-naphthyridin-3-yl)-N-methylacetamide] | 10 to 50 | < 1 | 
CC(C)c1cnnc(Nc2ccc3ncc(C(=O)O)cc3n2)c1 [Example 0639, 6-((5-isopropylpyridazin-3-yl)amino)-1,5-naphthyridine-3-carboxylic acid] | 1 to 10 | 10 to 50 | 
CC(C)c1cnnc(Nc2ccc3ncc(NC(=O)CO)cc3n2)c1 [Example 0662, 2-hydroxy-N-(6-((5-isopropylpyridazin-3-yl)amino)-1,5-naphthyridin-3-yl)acetamide] | < 1 | 1 to 10 | 
Cc1ncccc1-c1cnc2ccc(Nc3cc(C(C)C)cnn3)nc2c1 [Example 0599] | 1 to 10 | < 1 | 
CC(C)c1cnnc(Nc2ccc3ncc(-c4cn(C)nc4Cl)cc3n2)c1 [Example 0886, 7-(3-Chloro-1-methyl-1H-pyrazol-4-yl)-N-(5-isopropylpyridazin-3-yl)-1,5-naphthyridine-2-amine] | < 1 | < 1 | 
CC(C)N1CC(OCCn2cc(-c3cnc4ccc(Nc5cc(CC6CCCCC6)cnn5)nc4c3)cn2)C1 [Example 0819] | < 1 | < 1 | 
COC1CN(CCCn2cc(-c3cnc4ccc(Nc5cc(C(C)C)cnn5)nc4c3)c(C)n2)C1 [Example 0796, N-(5-isopropylpyridazin-3-yl)-7-(1-(3-(3-methoxyazetidin-1-yl)propyl)-3-methyl-1H-pyrazol-4-yl)-1,5-naphthyridine-2-amine] | < 1 | < 1 | 
CC(C)c1cnnc(Nc2ccc3ncc(-c4cnn(CC5CCNCC5)c4)cc3n2)c1 [Example 0485, trifluoroacetic acid salt of N-(5-isopropylpyridazin-3-yl)-7-(1-(piperidin-4-ylmethyl)-1H-pyrazol-4-yl)-1,5-naphthyridine-2-amine] | < 1 | < 1 | 
CC(C)c1cnnc(Nc2ccc3ncc(N4CC5CC(C4)O5)cc3n2)c1 [Example 0902] | < 1 |  | < 1
CC(C)c1cnnc(Nc2ccc3ncc(-c4cnn(C(C)(C)C)c4)cc3n2)c1 [Example 0481] | 1 to 10 | < 1 | 
CC(C)c1cnnc(Nc2ccc3ncc(-c4ccn[nH]4)cc3n2)c1 [Example 0622, N-(5-isopropylpyridazin-3-yl)-7-(1H-pyrazol-5-yl)-1,5-naphthyridine-2-amine] | < 1 | < 1 | 

Continued, values first:

IC50 [1] [µM] | IC50 ([2]; ERK2 enzyme assay (2)) [µM] | IC50 [2] [µM] | Structure (SMILES)
< 1 | < 1 |  | CC(C)c1cnnc(Nc2ccc3ncc(-c4cnn(C[C@H]5CC[C@H](O)CC5)c4)cc3n2)c1 [Example 0521]
< 1 | < 1 |  | COCC(C)c1cnnc(Nc2ccc3ncc(-c4cnn(C)c4)cc3n2)c1 (centres unmarked) [Example 0788, N-(5-(1-methoxypropan-2-yl)pyridazin-3-yl)-7-(1-methyl-1H-pyrazol-4-yl)-1,5-naphthyridine-2-amine]
< 1 | < 1 |  | CC(C)c1cnnc(Nc2ccc3ncc(-c4cnn(CCC(=O)N5CCCCC5)c4)cc3n2)c1 [Example 0416]
< 1 | < 1 |  | CNc1nn(C)cc1-c1cnc2ccc(Nc3cc(C(C)C)cnn3)nc2c1 [Example 0683, N-(5-isopropylpyridazin-3-yl)-7-(1-methyl-3-(methylamino)-1H-pyrazol-4-yl)-1,5-naphthyridine-2-amine hydrochloride]
< 1 | < 1 |  | CC(C)c1cnnc(Nc2ccc3nccc(-c4ccncc4)c3n2)c1 [Example 0410]
< 1 | < 1 |  | CC(C)c1cnnc(Nc2ccc3ncc(-c4cnn(CC(F)(F)CN5CCCC5)c4)cc3n2)c1 [Example 0735, 7-(1-(2,2-Difluoro-3-(pyrrolidin-1-yl)propyl)-1H-pyrazol-4-yl)-N-(5-isopropylpyridazin-3-yl)-1,5-naphthyridine-2-amine]
< 1 | 1 to 10 |  | CC(=O)N1CCC(Nc2cnc3ccc(Nc4cc(C(C)C)cnn4)nc3c2)CC1 [Example 0540, 1-(4-((6-((5-Isopropylpyridazin-3-yl)amino)-1,5-naphthyridin-3-yl)amino)piperidin-1-yl)ethanone]
< 1 | < 1 |  | COCC(COC)Cn1cc(-c2cnc3ccc(Nc4cc(C(C)C)cnn4)nc3c2)cn1 [Example 0484]
< 1 | < 1 |  | CC(C)c1cnnc(Nc2ccc3ncc(-c4cnn(CC(O)CN5CCOCC5)c4)cc3n2)c1 (centres unmarked) [Example 0729]
< 1 | < 1 |  | Cc1c(-c2cnn(C)c2)cnc2ccc(Nc3cc(C(C)C)cnn3)nc12 [Example 0850, N-(5-isopropylpyridazin-3-yl)-8-methyl-7-(1-methyl-1H-pyrazol-4-yl)-1,5-naphthyridine-2-amine]
< 1 | < 1 |  | Cn1cc(-c2cnc3ccc(Nc4cc(C(C)(C)C)cnn4)nc3c2)cn1 [Example 0526]
